From ChEMBL document CHEMBL1201862, “PubChem BioAssay data set” (2004)
Activity calls are given as the source filed them.

Columns and labels:
[1] = target: Polyadenylate-binding protein 1 (Homo sapiens, UniProt P11940); assay: PABP poly(A) RNA binding inhibitors, primary screen, biochemical, fluorescence polarization, uHTS (AID 2014)
[2] = target: Eukaryotic translation initiation factor 4H (Homo sapiens, UniProt Q15056); assay: human eIF4H binding inhibitors, primary screen, translation initiation inhibitor project, biochemical, uHTS, fluorescence polarization (AID 2012)
[3] = target: DNA dC->dU-editing enzyme APOBEC-3G (Homo sapiens, UniProt Q9HC16); type: functional;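 note: Dose-response counterscreen measuring inhibition of APOBEC3G DNA deaminase activity, run while confirming APOBEC3A inhibitors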
DNA dC->dU-editing enzyme APOBEC-3G, sequence (Q9HC16 whole entry): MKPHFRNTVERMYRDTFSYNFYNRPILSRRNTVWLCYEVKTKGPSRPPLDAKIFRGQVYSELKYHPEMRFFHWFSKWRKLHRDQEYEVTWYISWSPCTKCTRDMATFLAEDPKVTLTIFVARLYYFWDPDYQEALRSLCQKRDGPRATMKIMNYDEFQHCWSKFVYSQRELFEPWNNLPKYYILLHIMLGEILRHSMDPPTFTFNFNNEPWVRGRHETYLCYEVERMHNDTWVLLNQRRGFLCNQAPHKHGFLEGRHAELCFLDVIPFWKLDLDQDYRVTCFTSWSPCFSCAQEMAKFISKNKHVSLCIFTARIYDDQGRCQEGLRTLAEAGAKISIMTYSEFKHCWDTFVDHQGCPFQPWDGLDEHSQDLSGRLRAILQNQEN

[4] = target: DNA dC->dU-editing enzyme APOBEC-3A (Homo sapiens, UniProt P31941); assay: Dose Response confirmation of small molecule APOBEC3A DNA Deaminase Inhibitors via a fluorescence-based single-stranded DNA deaminase assay. [Related pubchem assays (depositor defined):AID493011, AID493024]; type: functional
DNA dC->dU-editing enzyme APOBEC-3A, sequence (P31941 whole entry): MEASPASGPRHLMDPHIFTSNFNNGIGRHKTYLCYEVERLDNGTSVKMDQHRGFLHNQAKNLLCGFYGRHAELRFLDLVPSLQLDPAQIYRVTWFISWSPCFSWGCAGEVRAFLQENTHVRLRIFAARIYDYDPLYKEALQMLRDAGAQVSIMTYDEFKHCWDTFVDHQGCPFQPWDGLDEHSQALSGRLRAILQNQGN

Large T antigen = Large T antigen (Simian virus 40, UniProt P03070); type: functional, Betapolyomavirus macacae;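 note: Confirmatory-stage PubChem screen for compounds that inhibit SV40 T antigen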
Large T antigen, sequence (P03070 whole entry): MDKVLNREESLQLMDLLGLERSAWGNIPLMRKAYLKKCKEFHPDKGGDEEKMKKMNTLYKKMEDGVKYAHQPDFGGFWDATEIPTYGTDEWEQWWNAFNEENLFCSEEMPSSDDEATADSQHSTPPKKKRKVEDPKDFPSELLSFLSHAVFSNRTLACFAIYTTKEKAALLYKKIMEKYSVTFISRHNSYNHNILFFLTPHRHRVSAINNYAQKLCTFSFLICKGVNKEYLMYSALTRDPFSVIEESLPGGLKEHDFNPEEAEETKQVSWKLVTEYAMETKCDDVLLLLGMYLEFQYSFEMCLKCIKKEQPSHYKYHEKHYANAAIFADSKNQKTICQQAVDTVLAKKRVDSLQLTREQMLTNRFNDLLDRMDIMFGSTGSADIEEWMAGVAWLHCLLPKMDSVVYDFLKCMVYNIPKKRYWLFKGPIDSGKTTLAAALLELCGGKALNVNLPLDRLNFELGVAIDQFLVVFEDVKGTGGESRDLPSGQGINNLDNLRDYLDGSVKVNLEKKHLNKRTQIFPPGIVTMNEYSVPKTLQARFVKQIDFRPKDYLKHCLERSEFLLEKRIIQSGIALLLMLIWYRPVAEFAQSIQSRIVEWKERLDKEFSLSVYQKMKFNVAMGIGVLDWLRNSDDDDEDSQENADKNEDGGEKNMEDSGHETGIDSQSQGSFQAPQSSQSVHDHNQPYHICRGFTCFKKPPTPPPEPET

Protein RecA = target: T1, Protein RecA (Mycobacterium tuberculosis, UniProt P9WHJ3); assay: Fluorescence Cell-Free Homogeneous Dose Retest to Identify Inhibitors of RecA-Intein Splicing Activity. [Related pubchem assays (depositor defined):AID2097, AID2223, AID489010, AID492950]; type: functional
T1 sequence (P9WHJ3 whole entry): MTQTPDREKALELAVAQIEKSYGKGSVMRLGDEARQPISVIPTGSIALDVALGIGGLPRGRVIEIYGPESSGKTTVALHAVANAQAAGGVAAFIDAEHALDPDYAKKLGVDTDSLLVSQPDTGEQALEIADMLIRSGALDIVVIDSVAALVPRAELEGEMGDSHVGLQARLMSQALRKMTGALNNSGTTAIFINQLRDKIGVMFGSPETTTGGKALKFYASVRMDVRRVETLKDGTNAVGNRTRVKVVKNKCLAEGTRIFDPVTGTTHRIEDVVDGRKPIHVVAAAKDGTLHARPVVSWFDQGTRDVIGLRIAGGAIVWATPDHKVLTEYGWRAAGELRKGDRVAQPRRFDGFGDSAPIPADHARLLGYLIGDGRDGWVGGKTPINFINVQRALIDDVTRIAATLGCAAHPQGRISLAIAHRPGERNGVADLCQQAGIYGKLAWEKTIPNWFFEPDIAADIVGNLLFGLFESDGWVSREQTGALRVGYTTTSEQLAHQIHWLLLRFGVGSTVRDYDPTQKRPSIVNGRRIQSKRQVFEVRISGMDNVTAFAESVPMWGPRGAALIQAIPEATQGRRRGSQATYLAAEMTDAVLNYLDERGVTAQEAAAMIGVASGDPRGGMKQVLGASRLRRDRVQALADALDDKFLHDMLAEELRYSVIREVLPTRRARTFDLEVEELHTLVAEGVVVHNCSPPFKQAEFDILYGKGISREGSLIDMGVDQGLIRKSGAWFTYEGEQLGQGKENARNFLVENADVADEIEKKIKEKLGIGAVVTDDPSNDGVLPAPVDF

[5] = target: T2, Replicative DNA helicase DnaB (Mycobacterium tuberculosis, UniProt P9WMR3); assay: DnaB intein splicing inhibitors, dose response, biochemical, cell-free fluorescence (AID 449749); type: functional
T2 sequence (P9WMR3 whole entry): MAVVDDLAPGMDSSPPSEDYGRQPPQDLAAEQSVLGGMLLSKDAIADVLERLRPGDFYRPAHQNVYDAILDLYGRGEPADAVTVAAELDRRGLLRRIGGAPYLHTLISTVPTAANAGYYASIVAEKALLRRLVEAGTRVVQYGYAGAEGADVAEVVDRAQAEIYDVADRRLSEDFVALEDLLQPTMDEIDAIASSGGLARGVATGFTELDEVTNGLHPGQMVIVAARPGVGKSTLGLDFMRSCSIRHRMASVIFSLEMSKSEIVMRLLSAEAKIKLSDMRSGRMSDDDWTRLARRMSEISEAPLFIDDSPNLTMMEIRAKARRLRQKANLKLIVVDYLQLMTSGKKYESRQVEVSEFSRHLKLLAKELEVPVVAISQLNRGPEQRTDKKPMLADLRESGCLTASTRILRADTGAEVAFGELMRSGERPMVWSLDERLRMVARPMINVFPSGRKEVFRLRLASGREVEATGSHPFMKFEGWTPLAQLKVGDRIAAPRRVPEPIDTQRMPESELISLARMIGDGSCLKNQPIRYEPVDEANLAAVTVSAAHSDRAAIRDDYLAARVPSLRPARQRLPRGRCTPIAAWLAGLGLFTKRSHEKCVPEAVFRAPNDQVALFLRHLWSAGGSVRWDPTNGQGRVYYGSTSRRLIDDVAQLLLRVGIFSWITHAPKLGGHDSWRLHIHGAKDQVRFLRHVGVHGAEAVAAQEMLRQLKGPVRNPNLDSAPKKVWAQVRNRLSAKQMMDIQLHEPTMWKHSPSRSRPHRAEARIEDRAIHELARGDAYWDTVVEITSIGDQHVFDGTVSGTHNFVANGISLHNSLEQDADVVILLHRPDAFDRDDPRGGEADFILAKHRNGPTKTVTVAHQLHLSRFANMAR

Vero = assay: cells; type: functional; settings: Chlorocebus sabaeus
[6] = microbe, parasite or virus in culture; type: functional; settings: Mycobacterium tuberculosis
[7] = Luminescence Cell-Based Dose Confirmation HTS to Identify Inhibitors of Platelet Dense Granule Release. [Related pubchem assays: 1663 (Primary HTS), 1678 (Summary of Project)]; type: functional
cells = type: functional
[8] = target: Luciferin 4-monooxygenase (Photinus pyralis, UniProt P08659); assay: firefly luciferase enzyme inhibitors, dose response, biochemical, luminescence (AID 1891)
Luciferin 4-monooxygenase, sequence (P08659 whole entry): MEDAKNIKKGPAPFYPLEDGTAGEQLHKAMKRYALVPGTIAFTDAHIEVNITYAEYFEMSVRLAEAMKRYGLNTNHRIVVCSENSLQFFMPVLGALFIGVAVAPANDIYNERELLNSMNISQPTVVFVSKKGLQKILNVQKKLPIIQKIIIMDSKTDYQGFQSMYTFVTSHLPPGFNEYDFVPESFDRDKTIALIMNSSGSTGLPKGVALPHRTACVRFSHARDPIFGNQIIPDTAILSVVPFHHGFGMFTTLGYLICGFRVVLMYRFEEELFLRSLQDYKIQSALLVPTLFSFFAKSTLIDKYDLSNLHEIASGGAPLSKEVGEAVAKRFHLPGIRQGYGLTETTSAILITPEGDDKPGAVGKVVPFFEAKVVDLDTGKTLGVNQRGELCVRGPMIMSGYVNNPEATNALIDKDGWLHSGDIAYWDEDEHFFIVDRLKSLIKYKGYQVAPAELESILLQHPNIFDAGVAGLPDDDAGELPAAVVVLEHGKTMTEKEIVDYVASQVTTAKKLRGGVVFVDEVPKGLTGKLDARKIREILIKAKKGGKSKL

[9] = control 3'UTR Renilla luciferase suppression, dose response, counter-screen for Shn3 inhibitor project, cell-based, Clone20-Shn3RL, cherry-picked (AID 624133); type: functional
[10] = Shn3 3'UTR reporter inhibitors, dose response, cell-based, Clone20 osteoblasts, firefly luciferase, cherry-picked (AID 624132); type: functional;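 note: firefly luciferase luminescence from reporter carrying the Shn3 3'UTR in osteoblasts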
[11] = growth suppression of beta-catenin-knockout colon cells, dose response, cell-based, HCT116, human colon tumor (AID 1045); type: functional;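 note: HCT116 colon tumor cells with beta catenin knocked out; cells exposed to compound for 60 hours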
[12] = growth suppression of PTEN-null colon cells, dose response, cell-based, HCT116 PTEN knockout (AID 1047); type: functional;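 note: HCT116 colon tumor cells with PTEN knocked out; cells exposed to compound for 60 hours before readout; potency for loss of cell viability measured by luminescence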
Genome polyprotein = Genome polyprotein (dengue virus type 2, UniProt P29990); assay: Dengue-2 NS5 methyltransferase inhibitors, primary screen, biochemical, confirmation dose response (AID 588689); type: functional
Genome polyprotein, sequence (P29990 2492-3391 limits assumed): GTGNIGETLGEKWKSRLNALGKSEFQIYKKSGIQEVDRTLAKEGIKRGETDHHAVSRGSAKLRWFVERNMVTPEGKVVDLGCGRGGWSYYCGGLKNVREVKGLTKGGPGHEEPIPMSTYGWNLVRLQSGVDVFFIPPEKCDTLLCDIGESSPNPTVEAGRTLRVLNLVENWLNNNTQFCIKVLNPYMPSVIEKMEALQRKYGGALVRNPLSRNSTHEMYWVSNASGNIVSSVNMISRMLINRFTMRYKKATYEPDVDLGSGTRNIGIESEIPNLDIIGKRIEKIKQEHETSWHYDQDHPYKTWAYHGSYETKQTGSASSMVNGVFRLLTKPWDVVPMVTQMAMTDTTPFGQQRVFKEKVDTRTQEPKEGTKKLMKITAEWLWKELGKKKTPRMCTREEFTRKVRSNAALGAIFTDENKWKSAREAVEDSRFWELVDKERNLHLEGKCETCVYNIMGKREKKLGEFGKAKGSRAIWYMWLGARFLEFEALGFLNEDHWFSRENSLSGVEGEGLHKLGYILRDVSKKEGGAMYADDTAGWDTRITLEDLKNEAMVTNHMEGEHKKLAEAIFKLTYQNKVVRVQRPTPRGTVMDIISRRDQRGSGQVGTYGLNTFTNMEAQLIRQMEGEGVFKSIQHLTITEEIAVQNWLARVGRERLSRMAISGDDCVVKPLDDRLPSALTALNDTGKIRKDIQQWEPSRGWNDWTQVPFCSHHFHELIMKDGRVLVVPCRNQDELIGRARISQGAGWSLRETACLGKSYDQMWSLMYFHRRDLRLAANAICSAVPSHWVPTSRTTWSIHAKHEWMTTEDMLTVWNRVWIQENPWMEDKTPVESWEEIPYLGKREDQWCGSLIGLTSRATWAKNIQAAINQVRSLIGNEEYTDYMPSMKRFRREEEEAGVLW

[13] = THP-1 cell cytotoxicity, dose response, cytotoxicity control for non-replicating M. tuberculosis project (AID 489025); type: functional
[14] = system: Streptococcus sp. 'group A'; assay: growth inhibition of control SK(-) GAS strain, dose response, counter-screen for streptokinase expression inhibitor project, luminescence, kanamycin, BacTiterGlo, confirmation (AID 1900); type: functional, organism-based
Streptococcus = assay: Group A Streptococcus viability loss, dose response, counter-screen for streptokinase expression inhibitor project, luminescence, BacTiterGlo (AID 1915); type: functional, organism-based;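 note: potency for reduction of bacterial viability or growth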
Aminopeptidase N = target: T3, Aminopeptidase N (Plasmodium falciparum FcB1/Columbia, UniProt O96935); assay: P. falciparum M1AAP inhibitors, biochemical, fluorogenic H-Leu-NHMec substrate, 1536-well (AID 1445); set-up: species or system Plasmodium falciparum 3D7, 3D7
T3 sequence (O96935 whole entry): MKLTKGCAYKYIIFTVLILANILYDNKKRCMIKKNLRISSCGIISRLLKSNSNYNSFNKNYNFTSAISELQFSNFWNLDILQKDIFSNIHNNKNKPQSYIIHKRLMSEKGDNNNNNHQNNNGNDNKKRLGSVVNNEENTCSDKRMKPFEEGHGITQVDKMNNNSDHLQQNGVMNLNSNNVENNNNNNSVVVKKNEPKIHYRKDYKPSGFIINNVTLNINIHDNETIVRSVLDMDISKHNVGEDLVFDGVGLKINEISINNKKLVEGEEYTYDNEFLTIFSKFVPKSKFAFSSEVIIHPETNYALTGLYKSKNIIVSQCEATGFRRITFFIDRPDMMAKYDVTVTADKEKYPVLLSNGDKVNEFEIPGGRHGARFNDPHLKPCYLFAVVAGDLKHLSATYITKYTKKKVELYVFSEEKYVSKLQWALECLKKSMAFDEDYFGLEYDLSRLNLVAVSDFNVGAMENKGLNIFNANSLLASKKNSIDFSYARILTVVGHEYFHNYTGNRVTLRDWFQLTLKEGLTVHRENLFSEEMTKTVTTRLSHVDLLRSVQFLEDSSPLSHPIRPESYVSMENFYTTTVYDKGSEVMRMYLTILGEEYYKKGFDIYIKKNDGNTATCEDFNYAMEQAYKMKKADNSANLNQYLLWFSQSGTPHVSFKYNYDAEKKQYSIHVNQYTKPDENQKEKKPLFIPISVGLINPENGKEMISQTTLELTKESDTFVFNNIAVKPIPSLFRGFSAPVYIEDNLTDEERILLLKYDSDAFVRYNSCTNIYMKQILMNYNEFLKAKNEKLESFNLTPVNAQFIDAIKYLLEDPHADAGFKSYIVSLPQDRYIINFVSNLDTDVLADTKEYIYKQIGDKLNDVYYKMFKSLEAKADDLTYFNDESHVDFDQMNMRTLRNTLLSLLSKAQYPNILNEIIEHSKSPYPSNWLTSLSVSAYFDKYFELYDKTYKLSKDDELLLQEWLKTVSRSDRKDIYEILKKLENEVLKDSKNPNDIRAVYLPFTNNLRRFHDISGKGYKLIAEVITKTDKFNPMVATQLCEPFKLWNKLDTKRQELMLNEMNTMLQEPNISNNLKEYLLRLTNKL

Streptokinase A = target: T4, Streptokinase A (Streptococcus pyogenes serotype M1, UniProt P10520); assay: S. pyogenes streptokinase expression inhibitors, potency, dose response, plasminogen activation absorbance, OD405 (AID 1914); type: functional, Streptococcus pyogenes M1 GAS;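 note: secreted streptokinase activity via plasminogen activation per viability signal from cell pellet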
T4 sequence (P10520 whole entry): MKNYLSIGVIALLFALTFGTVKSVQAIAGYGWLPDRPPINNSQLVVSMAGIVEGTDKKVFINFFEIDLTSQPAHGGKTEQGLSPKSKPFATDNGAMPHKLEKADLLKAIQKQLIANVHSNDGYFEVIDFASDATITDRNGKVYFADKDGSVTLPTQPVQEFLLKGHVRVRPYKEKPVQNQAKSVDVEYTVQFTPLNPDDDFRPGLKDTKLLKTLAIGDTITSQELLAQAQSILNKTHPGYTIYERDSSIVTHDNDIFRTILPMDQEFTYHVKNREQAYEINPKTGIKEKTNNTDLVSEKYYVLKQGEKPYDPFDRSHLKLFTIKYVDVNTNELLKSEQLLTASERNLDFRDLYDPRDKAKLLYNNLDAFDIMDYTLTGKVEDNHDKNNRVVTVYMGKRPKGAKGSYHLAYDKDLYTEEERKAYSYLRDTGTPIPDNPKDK

[15] = Vero E6 cell cytotoxicity, dose response, cytotoxicity control for non-replicating M. tuberculosis project, secondary assay (AID 492998); type: functional, VeroE6; settings: Vero C1008
[16] = HepG2 cell cytotoxicity, dose response, cytotoxicity control for non-replicating M. tuberculosis project (AID 489018); type: functional; settings: Mycobacterium tuberculosis

Polyadenylate-binding protein 1, sequence (P11940 whole entry): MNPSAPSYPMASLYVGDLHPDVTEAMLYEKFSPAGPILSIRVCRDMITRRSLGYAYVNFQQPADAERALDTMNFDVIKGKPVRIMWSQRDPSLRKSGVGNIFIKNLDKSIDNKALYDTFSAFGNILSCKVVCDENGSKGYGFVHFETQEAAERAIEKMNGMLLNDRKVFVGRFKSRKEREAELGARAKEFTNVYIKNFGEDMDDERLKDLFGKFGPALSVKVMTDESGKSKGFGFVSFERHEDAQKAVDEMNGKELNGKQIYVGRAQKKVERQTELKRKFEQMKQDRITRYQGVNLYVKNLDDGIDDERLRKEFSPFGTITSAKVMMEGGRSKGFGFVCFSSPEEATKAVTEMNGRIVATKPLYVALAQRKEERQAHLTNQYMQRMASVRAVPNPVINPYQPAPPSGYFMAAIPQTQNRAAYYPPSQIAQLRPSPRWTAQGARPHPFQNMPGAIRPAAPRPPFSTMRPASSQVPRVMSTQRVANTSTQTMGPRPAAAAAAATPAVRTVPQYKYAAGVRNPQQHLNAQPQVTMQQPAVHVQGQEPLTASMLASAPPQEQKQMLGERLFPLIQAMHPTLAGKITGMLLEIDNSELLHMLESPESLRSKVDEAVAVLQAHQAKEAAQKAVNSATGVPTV

## CCN1C(NCCc2cccnc2)=N[C@@H](c2ccccc2)C(C(=O)OC)=C1C
[1]
  IC50: 12 µM (active)
[2]
  IC50: > 100 µM (inactive)

## CC(Oc1ccc(F)cc1)C(=O)Nc1cc(S(=O)(=O)N2CCOCC2)ccc1N1CCN(C)CC1 (stereo not drawn)
[3]
  IC50: 8.29 µM (active)
[4]
  IC50: 4.91 µM (active)

## CC(=O)c1c(COC(=O)c2cccnc2)nc2ccccc2[n+]1[O-]
[3]
  IC50: 2.09 µM (active)
[4]
  IC50: 1.48 µM (active)

## N#CCn1c(CCl)nc2ccccc2c1=O
Large T antigen
  IC50: 15.1 µM (active)
Protein RecA
  EC50: 7.2 µM (active)
[5]
  AC50: 80.6 µM (active)
Vero
  CC50: 14.9 µM (active)
[6]
  CC50: 30.8 µM (active)

## COc1cc(/C=C2/C(=O)NN(c3ccc(Cl)cc3)C2=O)ccc1OC(=O)c1ccco1
Large T antigen
  IC50: 21.6 µM (active)
[7]
  EC50: > 112 µM (not active)
cells
  IC50: 16.6 µM (active)
[8]
  EC50: > 112 µM (not active)

## CC(C)C[C@H](NC(=O)C1CC(=O)N(c2ccc3c(c2)OCO3)C1)C(=O)NCc1ccco1 (stereo partly drawn)
[1]
  IC50: > 100 µM (inactive)
[2]
  IC50: 20 µM (active)

## COc1cc(O)ccc1C(=O)CCc1ccc(O)cc1
Large T antigen
  IC50: 13.3 µM (active)

## O=C1ON=C(c2ccccc2)/C1=C/c1ccc(-c2ccccc2[N+](=O)[O-])o1
[9]
  AC50: 23.2 µM (active)
Large T antigen
  IC50: 52.8 µM (active)
[10]
  AC50: 7.21 µM (active)
[11]
  EC50: 21.4 µM (active)
[12]
  EC50: 42.5 µM (active)
Genome polyprotein
  IC50: 11.6 µM (active)

## CCc1cc2c(=O)c(-c3nc4ccccc4n3C)coc2c(CN2CCCCC2C)c1O (stereo not drawn)
[1]
  IC50: 57.8 µM (active)
[2]
  IC50: 15.1 µM (active)

## C/C(=N\NC(=O)c1ccccc1O)C1C(=O)c2ccccc2C1=O
[13]
  CC50: 10.5 µM (active)
[14]
  EC50: 3.62 µM (active)
Streptococcus
  EC50: 41 µM (active)
Aminopeptidase N
  IC50: 12.8 µM (active)
Streptokinase A
  EC50: > 150 µM (not active)
[15]
  CC50: 4.99 µM (active)
[16]
  CC50: > 20 µM (active)
